This is an account of results in patent publication US5567693A, “Method for inhibiting angiogenesis, proliferation of endothelial or tumor cells and tumor growth” (American Cyanamid Company, priority 1994, dated 1996).

Structures can show the parent of a compound that is named as a salt.

Holding throughout (format): cell-based
For test [1], the system named is Adult Bovine Aortic Endothelial (ABAE) cell line. Briefly: Antiproliferative activity in ABAE cell line, PROTOCOL 3 (4 day assay). The protocol: (§1) The antiproliferative activity of the compounds of Formula I in an Adult Bovine Aortic Endothelial (ABAE) cell line and in Human Tumor cell lines is evaluated in three similar assays that measure growth inhibition. The assays are identified as follows:
(§2) PROTOCOL 1,2,and 3 are described in greater detail hereinbelow. In general, according to PROTOCOLS 1 and 2, the target ABAE and/or Human Tumor cells are exposed to the compounds of Formula I for 48 hours. PROTOCOL 3 exposes ABAE cells to the compounds for 4 days. A detailed description of the protocols is as follows:
Antiproliferative Activity in Adult Bovine Aortic Endothelial (ABAE) Cell Line
ABAE cells are grown in DMEMmedia (Mediatech, Washington, D.C.) supplemented with 10% calf serum (Hyclone). ABAE cells are plated in 24-well dishes at 8,000 cells/well, followed by the addition of increasing concentrations of 7-(hydrogen or di(C1 -C4)alkylamino)-8-halogen-9-(substituted)-6-demethyl-6-deoxytetracycline. After four days, the cells are detached and counted. […] The growth inhibition (I) as % of control is calculated as follows: [formula] wherein: Nc is the number of cells in untreated wells;
Nt is the number of cells in treated wells;
No is the number of plated cells.
IC50 of growth inhibition is determined from the sets of I values plotted by Kaleidograph software (Abelbeck Software).
In addition FIG. 1, presents the dose response curve for the compound of Example 10 for the above ABAE cell line obtained by using PROTOCOL 3.

The next test deals with A2780S. Kind of test: Antiproliferative activity in human tumor cell lines: A2780S (ovarian). The following applies: PROTOCOL 1 and PROTOCOL 2, 48 hours. The protocol:
(§3) The assays are identified as follows:
as §2
(§4) The antiproliferative activity of the compounds of Formula I of the present invention is evaluated in a panel comprised of human tumor cell lines and an adult bovine aortic endothelial cell line (ABAE). The human tumor cell lines are from
(§5) Cultures are renewed after 20 passages with cells from a fresh stock of batch-frozen early passage cells. Cell lines are routinely checked for mycoplasma contamination (Genprobe). In a laminar flow hood, cells (1-5×10^4) are plated into 96-well microtiter plates in a volume of 0.1 ml/well with a bulk microtiter dispenser (Denley). […] Compounds are added using a Tomtec dispenser which simultaneously dispenses from one 96-well plate, containing the drug dilutions, to the plates containing the cells. After two days of continuous drug exposure, 50% cold trichloroacetic acid (TCA) is added to 10% final concentration to fix the cells, and after 60 minutes at 4° C., the TCA is aspirated and the plates are washed 5 times with deionized water using a microtiter plate washer. […] A 0.4% solution of the dye, sulforhodamine B, in […] is added to the plates, and the plates are washed 5 times with 1% glacial acetic acid using the automatic plate washed. The bound stain is solubilized with 0.1 ml of 10 mM Tris base. The optical densities are read from an automatic spectrophotometric plate reader (Dynatech) directly to a main frame computer (VAX 8600).
(§6) Positive controls, that include standard chemotherapeutic drugs (i.e., Adriamycin, Cisplatin, etc.), are included in every experiment.
(§7) Background optical density measurements (complete media-cells, and complete media+drug-cells) are automatically subtracted from the appropriate control and test wells. Mean values and standard errors are determined from duplicate wells. A measure is also made of the optical density at time when the drugs are added. The number of cells after treatment (P), as % of control, is calculated for every concentration of drug, as follows: [formula] wherein: T is optical density measurement for treated cells after 48 hours;
(§8) C is optical density measurement for untreated cells after 48 hours;
(§9) Co is optical density measurement for cells at the time of drug addition.
(§10) IC50 of growth inhibition is calculated from the sets of P values using the RS-1 data package (BBN Software).
(§11) The antiproliferative activity of the compounds of Formula I is evaluated in a panel comprised of human tumor cell lines and an adult bovine aortic cell line (ABAE) as listed in PROTOCOL 1. This assay is a modification of PROTOCOL 1. The modifications include:
(§12) 1) each concentration for each compound is tested in a single well;
(§13) 2) compounds are tested at 20, 4, 0.8, 0.16 microgram/ml and additionally in some experiments at 100 and 0.32 microgram/ml;
(§14) 3) samples are pipetted into a 96-well plate for each of the cell lines by a Beckman Biomek 1000 SL robot;
(§15) 4) after fixing with TCA each well is washed with 0.35 ml distilled water twice, not five times;
(§16) 5) after staining with sulforhodamine B each well is washed 3 times, not five times;
(§17) 6) the growth inhibition (I) as % of control, is calculated using the RS-1 data package (BBN Software), for every concentration of drug, as follows: [formula] wherein: T is optical density measurement for treated cells after 48 hours;
(§18) 7) IC50 of growth inhibition is determined graphically from dose response curves, as is known in the art.

A further test has as its system A2780/DDP. Briefly: Antiproliferative activity in human tumor cell lines: A2780/DDP (ovarian). The following applies: PROTOCOL 1 and PROTOCOL 2, 48 hours. The protocol: as §3, §2, §4, §5, §6, §7, §8, §9, §10, §11, §12, §13, §14, §15, §16, §17, §18
The test system of the next test is MIP. Briefly: Antiproliferative activity in human tumor cell lines: MIP (colon). Particulars: PROTOCOL 1 and PROTOCOL 2, 48 hours. The protocol: as §1, §2, §4
(§19) All cell lines are maintained in log phase in RPMI 1640 media, supplemented with 5% fetal calf serum, penicillin/streptomycin and 2 mM L-glutamine. Cultures are renewed after 20 passages with cells from a fresh stock of batch-frozen early passage cells. Cell lines are routinely checked for mycoplasma contamination (Genprobe). In a laminar flow hood, cells (1-5×10^4) are plated into 96-well microtiter plates in a volume of 0.1 ml/well with a bulk microtiter dispenser (Denley). […] At this concentration, dimethylsulfoxide has no effect on cell growth. Compounds are added using a Tomtec dispenser which simultaneously dispenses from one 96-well plate, containing the drug dilutions, to the plates containing the cells. After two days of continuous drug exposure, 50% cold trichloroacetic acid (TCA) is added to 10% final concentration to fix the cells, and after 60 minutes at 4° C., the TCA is aspirated and the plates are washed 5 times with deionized water using a microtiter plate washer. The number of cells on the plate are quantitated using a protein dye-binding assay (Monks et al., 1991). A 0.4% solution of the dye, sulforhodamine B, in glacial acetic acid is added to the plates, and the plates are washed 5 times with 1% glacial acetic acid using the automatic plate washed. The bound stain is solubilized with 0.1 ml of 10 mM Tris base. The optical densities are read from an automatic spectrophotometric plate reader (Dynatech) directly to a main frame computer (VAX 8600).
as §6, §7, §8, §9, §10, §11, §12, §13, §14, §15
(§20) 5) after staining with sulforhodamine B each well is washed 3 times, not five times; […]

A further test relates to CACO2. Kind of test: Antiproliferative activity in human tumor cell lines: CACO2 (colon). Particulars: Homo sapiens, Caco-2; CACO2 colon tumor; PROTOCOL 1 and PROTOCOL 2, 48 hours; read-out: IC50. The protocol:
as §1, §2, §4, §19, §6, §7, §8, §9, §10, §11, §12, §13, §14, §15, §20

In the next test the test system is SW620. Kind of test: Antiproliferative activity in human tumor cell lines: SW620 (colon). Particulars: SW-620, 48 h. The protocol: as §1, §2, §4, §19, §6, §7, §8, §9, §10, §11, §12, §13, §14, §15, §20
Another test deals with Human Tumor cell lines. Kind of test: Antiproliferative activity in the panel of human tumor cell lines. Particulars: Homo sapiens; average over the 6 tumor cell lines. Here is the method:
as §1, §2, §4, §19, §6, §7, §8, §9, §10, §11, §12, §13, §14, §15, §20

Regarding `CN(C)[C@@H]1C(O)=C(C(N)=O)C(=O)[C@@]2(O)C(O)=C3C(=O)c4c(cc(Cl)c(NC(=O)CN5CCCCC5)c4O)CC3CC12` (stereo partly drawn) [Example 10, 7S-(7α,10aα)]-N-[9-(Aminocarbonyl)-3-chloro-7-(dimethylamino)-5,5a,6,6a,7,10,10a,12-octahydro-1,8,10a,11-tetrahydroxy-10,12-dioxo-2-naphthacenyl]-1-piperidineacetamide dihydrochloride], the “activity upon incubation with cells” value in test [1] (4 day assay (PROTOCOL 3)) was “retains its activity”. In addition, the IC50 in test [1] (Bos taurus, 96 h, PROTOCOL 3, 4 day assay, read-out: inhibits 50% of cell growth) is about 0.4 µg/mL; with A2780S, 0.5 µg/mL; with A2780/DDP, 0.6 µg/mL; with MIP, 0.7 µg/mL; in the test on CACO2 it was 0.65 µg/mL; in the test on SW620 it was 0.6 µg/mL. Moreover, the IC50 with Human Tumor cell lines turned out to be 0.6 µg/mL.
